This is an account of results in US8530473B2, “Tetrahydroquinoxaline urea derivatives as modulators of 11β-hydroxysteroid dehydrogenase type 1” (Sanofi, priority 2009, dated 2013).

Counter-ions that a name gives are not always drawn.

The target of one series is T1, 11βHSD1 (Homo sapiens, UniProt P28845).
T1 construct: made in house; host or cells: S. cerevisiae yeast
Briefly: 11βHSD1 Scintillation Proximity Assay (SPA), 384-well format. The following applies: recombinant 11βHSD1 produced in S. cerevisiae; 3H-cortisone and NADPH; cortisol formed measured by SPA. The format is biochemical. The protocol: The compounds according to the invention have undergone pharmacological tests for determining their inhibitory effect on the enzyme 11βHSD1, which is involved in lipid metabolism and in glucose metabolism.
These tests consisted of measuring the inhibitory activity in vitro of compounds of the invention on the enzyme 11βHSD1 using a Scintillation Proximity Assay (SPA) in 384-well format. The recombinant 1βHSD1 protein was produced in S. cerevisiae yeast. The reaction was carried out by incubating the enzyme in the presence of ^3H-cortisone and NADPH, in the absence or in the presence of increasing concentration of inhibitor. SPA beads coupled to an antimouse antibody, preincubated with an anticortisol antibody, made it possible to measure the amount of cortisol formed during the reaction.
The inhibitory activity with respect to the enzyme 11βHSD1 is given by the concentration that inhibits 50% of the activity of 11βHSD1 (IC50).

The test system of another series is healthy volunteers. As to conditions: after seven days of treatment, healthy volunteers (Rauz et al. 2001); cited from earlier work.

T1 sequence (P28845 whole entry): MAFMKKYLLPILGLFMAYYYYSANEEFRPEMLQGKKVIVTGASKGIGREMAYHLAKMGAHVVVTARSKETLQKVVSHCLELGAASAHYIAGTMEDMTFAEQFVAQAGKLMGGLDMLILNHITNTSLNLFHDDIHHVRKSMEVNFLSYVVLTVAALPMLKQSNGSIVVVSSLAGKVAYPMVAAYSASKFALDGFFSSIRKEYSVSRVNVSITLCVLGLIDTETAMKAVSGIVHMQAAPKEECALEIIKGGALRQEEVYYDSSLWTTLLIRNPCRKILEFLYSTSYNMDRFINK

`NC(=O)[C@]12CC3CC(C1)[C@H](NC(=O)N1CCN(c4ccc(N5CCC(N6CC[C@@H](O)C6)CC5)cn4)c4ccccc41)C(C3)C2` (as salt: HCl) [Compound 9, Trans 4-[4-((R)-3-hydroxy-pyrrolidin-1-yl)-3,4,5,6,-tetrahydro-2H-[1,3′]bipyridinyl-6′-yl]-3,4-dihydro-2H-quinoxaline-1-carboxylic acid (5-carbamoyl-adamantan-2-yl)-amide] registered a melting point of 191 °C.

The compound `NC(=O)C12CC3CC(C1)C(NC(=O)N1CCN(c4ccc(N5CCC(N6CCC(F)(F)C6)CC5)cn4)c4ccccc41)C(C3)C2` (stereo not drawn) (as salt: HCl) [Compound 10, Trans 4-[4-(3,3-difluoro-pyrrolidin-1-yl)-3,4,5,6-tetrahydro-2H-[1,3′]bipyridinyl-6′-yl]-3,4-dihydro-2H-quinoxaline-1-carboxylic acid (5-carbamoyl-adamantan-2-yl)-amide] yielded a melting point of 196 °C.

For `NC(=O)C12CC3CC(C1)C(NC(=O)N1CCN(c4ccc(N5CCC(N6CCC[C@@H]6CO)CC5)cn4)c4ccccc41)C(C3)C2` (stereo in doubt) [Compound 6, Trans 4-[4-((R)-2-hydroxymethyl-pyrrolidin-1-yl)-3,4,5,6-tetrahydro-2H-[1,3′]bipyridinyl-6′-yl]-3,4-dihydro-2H-quinoxaline-1-carboxylic acid (5-carbamoyl-adamantan-2-yl)-amide], the IC50 at 11βHSD1 was found to be 4 nM.

Take `NC(=O)C12CC3CC(C1)C(NC(=O)N1CCN(c4ccc(N5CCC(N6CCC[C@H]6CO)CC5)cn4)c4ccccc41)C(C3)C2` (stereo in doubt) [Compound 7, Trans 4-[4-((S)-2-hydroxymethyl-pyrrolidin-1-yl)-3,4,5,6-tetrahydro-2H-[1,3′]bipyridinyl-6′-yl]-3,4-dihydro-2H-quinoxaline-1-carboxylic acid (5-carbamoyl-adamantan-2-yl)-amide]: the IC50 at 11βHSD1 was determined as 3 nM.

Turning to `NC(=O)C12CC3CC(C1)C(NC(=O)N1CCN(c4ccc(N5CCC(N6CC[C@H](O)C6)CC5)cn4)c4ccccc41)C(C3)C2` (stereo in doubt) [Compound 8, Trans 4-[4-((S)-3-hydroxy-pyrrolidin-1-yl)-3,4,5,6-tetrahydro-2H-[1,3′]bipyridinyl-6′-yl]-3,4-dihydro-2H-quinoxaline-1-carboxylic acid (5-carbamoyl-adamantan-2-yl)-amide], the IC50 at 11βHSD1 was determined as 6 nM.

Regarding `C[Si](C)(C)CN1CCN(c2ccc(N3CCN(C(=O)NC4C5CC6CC4CC(O)(C6)C5)c4ccccc43)nc2)CC1` (stereo not drawn) [Compound 1, Trans 4-[5-(4-trimethylsilanylmethyl-piperazin-1-yl)-pyridin-2-yl]-3,4-dihydro-2H-quinoxaline-1-carboxylic acid (5-hydroxy-adamantan-2-yl)-amide], the half-inhibitory concentration (IC50) on 11βHSD1 came out at 7 nM.

Turning to `CC(C)(C)ON=C1CCN(c2ccc(N3CCN(C(=O)N[C@H]4C5CC6CC4C[C@@](O)(C6)C5)c4ccccc43)nc2)CC1` [Compound 2, Trans 4-(4-tert-butoxyimino-3,4,5,6-tetrahydro-2H-[1,3′]bipyridinyl-6′-yl)-3,4-dihydro-2H-quinoxaline-1-carboxylic acid (5-hydroxy-adamantan-2-yl)-amide], the melting point was in the range of 110 to 113 °C. Further, the IC50 at 11βHSD1 amounted to 23 nM.

Take `C[Si](C)(C)CCS(=O)(=O)N1CCN(c2ccc(N3CCN(C(=O)NC4C5CC6CC4CC(O)(C6)C5)c4ccccc43)nc2)CC1` (stereo not drawn) [Compound 3, Trans 4-{5-[4-(2-trimethylsilanyl-ethanesulfonyl)-piperazin-1-yl]-pyridin-2-yl}-3,4-dihydro-2H-quinoxaline-1-carboxylic acid (5-hydroxy-adamantan-2-yl)-amide]: the melting point was in the range of 107 to 120 °C. Besides, the IC50 on 11βHSD1 was determined as 10 nM.

Consider `NC(=O)[C@]12CC3CC(C1)[C@H](NC(=O)N1CCN(c4ccc(N5CCN(CC6CC6(F)F)CC5)cn4)c4ccccc41)C(C3)C2` (stereo partly drawn) [Compound 4, Trans 4-{5-[4-(2,2-difluoro-cyclopropylmethyl)-piperazin-1-yl]-pyridin-2-yl}-3,4-dihydro-2H-quinoxaline-1-carboxylic acid (5-carbamoyl-adamantan-2-yl)-amide], for which the melting point worked out at 206 °C. In addition, at 11βHSD1, the IC50 stood at 3 nM.

In turn, `NC(=O)[C@]12CC3CC(C1)[C@H](NC(=O)N1CCN(c4ccc(N5CCC(N6CCS(=O)(=O)CC6)CC5)cn4)c4ccccc41)C(C3)C2` [Compound 5, Trans 4-[4-(1,1-dioxo-1lambda6-thiomorpholin-4-yl)-3,4,5,6-tetrahydro-2H-[1,3′]bipyridinyl-6′-yl]-3,4-dihydro-2H-quinoxaline-1-carboxylic acid (5-carbamoyl-adamantan-2-yl)-amide] showed a melting point of 160 to 200 °C. At 11βHSD1, the IC50 came to 4 nM.

For the compound `NC(=O)[C@]12CC3CC(C1)[C@H](NC(=O)N1CCN(c4ccc(N5CCC(N6CC[C@@H](O)C6)CC5)cn4)c4ccccc41)C(C3)C2` [Compound 9, Trans 4-[4-((R)-3-hydroxy-pyrrolidin-1-yl)-3,4,5,6,-tetrahydro-2H-[1,3′]bipyridinyl-6′-yl]-3,4-dihydro-2H-quinoxaline-1-carboxylic acid (5-carbamoyl-adamantan-2-yl)-amide], the IC50 at 11βHSD1 is 2 nM.

Take `NC(=O)C12CC3CC(C1)C(NC(=O)N1CCN(c4ccc(N5CCC(N6CCC(F)(F)C6)CC5)cn4)c4ccccc41)C(C3)C2` (stereo not drawn) [Compound 10, Trans 4-[4-(3,3-difluoro-pyrrolidin-1-yl)-3,4,5,6-tetrahydro-2H-[1,3′]bipyridinyl-6′-yl]-3,4-dihydro-2H-quinoxaline-1-carboxylic acid (5-carbamoyl-adamantan-2-yl)-amide]: the IC50 on 11βHSD1 came to 2 nM.

`Cl.NC(=O)[C@]12CC3CC(C1)[C@H](NC(=O)N1CCN(c4ccc(N5CCC6(CC5)CC6(F)F)cn4)c4ccccc41)C(C3)C2` [Compound 11, Trans 4-[5-(1,1-difluoro-6-aza-spiro[2.5]oct-6-yl)-pyridin-2-yl]-3,4-dihydro-2H-quinoxaline-1-carboxylic acid (5-carbamoyl-adamantan-2-yl)-amide] came in with a melting point of 134 to 170 °C. Besides, the half-inhibitory concentration (IC50) on 11βHSD1 turned out to be 3 nM.

As to `NC(=O)[C@]12CC3CC(C1)[C@H](NC(=O)N1CCN(c4ccc(N5CCC6(CC5)CC6C(=O)O)cn4)c4ccccc41)C(C3)C2` (stereo partly drawn) [Compound 12, trans-6-{6-[4-(5-Carbamoyl-adamantan-2-ylcarbamoyl)-3,4-dihydro-2H-quinoxalin-1-yl]-pyridin-3-yl}-6-aza-spiro[2.5]octane-1-carboxylic acid], the melting point is 145 to 160 °C. Further, at 11βHSD1, the IC50 amounted to 6 nM.

`C[Si]1(c2ccccc2)CCN(c2ccc(N3CCN(C(=O)N[C@H]4C5CC6CC4C[C@@](C(N)=O)(C6)C5)c4ccccc43)nc2)CC1` [Compound 13, Trans 4-[5-(4-methyl-4-phenyl-[1,4]azasilinan-1-yl)-pyridin-2-yl]-3,4-dihydro-2H-quinoxaline-1-carboxylic acid (5-carbamoyl-adamantan-2-yl)-amide]: the melting point was 106 to 108 °C. Also, at 11βHSD1, the IC50 was found to be 25 nM.

`C[Si]1(C)CCN(c2ccc(N3CCN(C(=O)NC4C5CC6CC4CC(C(N)=O)(C6)C5)c4ccccc43)nc2)CC1` (stereo not drawn) [Compound 14, Trans 4-[5-(4,4-dimethyl-[1,4]azasilinan-1-yl)-pyridin-2-yl]-3,4-dihydro-2H-quinoxaline-1-carboxylic acid (5-carbamoyl-adamantan-2-yl)-amide] registered a melting point of 213 to 216 °C. For the same compound, the IC50 at 11βHSD1 stood at 12 nM.

Turning to `CC1(C)[C@@H](OC(=O)CCC(=O)O)CC[C@]2(C)[C@H]3C(=O)C=C4[C@@H]5C[C@@](C)(C(=O)O)CC[C@]5(C)CC[C@@]4(C)[C@]3(C)CC[C@@H]12` [carbenoxolone], the “IOP is reduced by” value with healthy volunteers is 18%.
